Source: patent publication EP0377642B1, “HERBICIDES FOR WEED CONTROL IN RICE” (E.I. DU PONT DE NEMOURS AND COMPANY, priority 1987, dated 1989)

Columns and labels:
Assay type in all cases: in vivo
[1] = test system: Scirpus juncoides; experiment: Herbicidal efficacy in Indonesia, applied 2 weeks after transplanting (Table 6)
Source text: (§1) Methyl 2-[[[[(4-methoxy-6-methyl-1,3,5-triazin-2-yl)amino]carbonyl]amino]sulfonyl]benzoate (Compound 1) and mixtures thereof with other compounds were applied as a spray (using a hand sprayer) to rice (either transplanted or direct seeded) in several rice growing areas in Southeast Asia and in the U.S. Tables 1-28 contain the results of these tests and clearly exemplify the utility of this invention. The details of each application are included in the appropriate table. [drawing 2]

[2] = test system: Echinochloa crus-galli; experiment: as above
Source text: as §1

[3] = test system: Salvinia molesta; experiment: as above
Source text: as §1

[4] = test system: Monochoria vaginalis; experiment: as above
Source text: as §1

[5] = test system: rice; experiment: as above; details: 2 weeks after application
Source text: as §1

[6] = test system: Ludwigia linifolia; experiment: Herbicidal efficacy with 2,4-D in Thailand (Table 17); details: 4 GAI/HA; 14 days after treatment
Source text: as §1

[7] = test system: Cyperus difformis; experiment: as above; details: 4 GAI/HA; 14 days after treatment
Source text: as §1

[8] = test system: MC; experiment: as above; details: 4 GAI/HA; 14 days after treatment
Source text: as §1

[9] = test system: Sphenoclea zeylanica; experiment: as above; details: 4 GAI/HA; 14 days after treatment
Source text: as §1

[10] = test system: rice; experiment: as above; details: 4 GAI/HA; 14 days after treatment
Source text: as §1

[11] = test system: rice; experiment: Effects on rice growth in Thailand, phytotoxicity (Table 2); details: scale 0-10
Source text: as §1

[12] = test system: Marsilea crenata; experiment: Herbicidal efficacy alone and with 2,4-D in Malaysia, applied 30 days after seeding (Table 8); details: 22 days after treatment
Source text: as §1

[13] = test system: Cyperus difformis; experiment: as above; details: 22 days after treatment
Source text: as §1

[14] = test system: FIMBRISTYLIS MILIACEA; experiment: as above; details: 22 days after treatment
Source text: as §1

[15] = test system: Monochoria vaginalis; experiment: as above; details: 22 days after treatment
Source text: as §1

[16] = test system: Sphenoclea zeylanica; experiment: as above; details: 22 days after treatment
Source text: as §1

[17] = test system: Scirpus grossus; experiment: as above; details: 22 days after treatment
Source text: as §1

[18] = test system: Sesbania exaltata; experiment: Late-post application in Beaumont, Texas, with 0.25% AG-98 (Table 9); details: 70 days after seeding
Source text: as §1

[19] = test system: Echinochloa colonum; experiment: as above; details: 70 days after seeding
Source text: as §1

[20] = test system: Caperonia castaniifolia; experiment: as above; details: 70 days after seeding
Source text: as §1

[21] = test system: Aeschynomene indica; experiment: as above; details: 70 days after seeding
Source text: as §1

[22] = test system: Annual sedge (?); experiment: as above; details: 70 days after seeding
Source text: as §1

[23] = test system: Eclipta alba; experiment: as above; details: 70 days after seeding
Source text: as §1

[24] = test system: Commelina communis; experiment: as above; details: 70 days after seeding
Source text: as §1

[25] = test system: rice; experiment: as above; details: 70 days after seeding
Source text: as §1

[26] = 3 GAI/HA, 2 weeks after application
[27] = 3 GAI/HA, 5 weeks after application
[28] = 3 GAI/HA, 7 weeks after application
[29] = 4 GAI/HA, 2 weeks after application
[30] = 4 GAI/HA, 5 weeks after application
[31] = 4 GAI/HA, 7 weeks after application
[32] = 6 GAI/HA, 2 weeks after application
[33] = 6 GAI/HA, 5 weeks after application
[34] = 6 GAI/HA, 7 weeks after application
[35] = 8 GAI/HA, 2 weeks after application
[36] = 8 GAI/HA, 5 weeks after application
[37] = 8 GAI/HA, 7 weeks after application

## COC(=O)c1ccccc1S(=O)(=O)NC(=O)Nc1nc(C)nc(OC)n1 [Compound 1, Methyl 2-[[[[(4-methoxy-6-methyl-1,3,5-triazin-2-yl)amino]carbonyl]amino]sulfonyl]benzoate]
[1]; [26]
  % CONTROL SJ: 60%
[1]; [27]
  % CONTROL SJ: 90%
[1]; [28]
  % CONTROL SJ: 70%
[1]; [29]
  % CONTROL SJ: 60%
[1]; [30]
  % CONTROL SJ: 100%
[1]; [31]
  % CONTROL SJ: 70%
[1]; [32]
  % CONTROL SJ: 90%
[1]; [33]
  % CONTROL SJ: 100%
[1]; [34]
  % CONTROL SJ: 80%
[1]; [35]
  % CONTROL SJ: 80%
[1]; [36]
  % CONTROL SJ: 100%
[1]; [37]
  % CONTROL SJ: 80%
[2]; [26]
  % CONTROL EC: 20%
[2]; [27]
  % CONTROL EC: 30%
[2]; [28]
  % CONTROL EC: 0%
[2]; [29]
  % CONTROL EC: 20%
[2]; [30]
  % CONTROL EC: 30%
[2]; [31]
  % CONTROL EC: 0%
[2]; [32]
  % CONTROL EC: 20%
[2]; [33]
  % CONTROL EC: 30%
[2]; [34]
  % CONTROL EC: 0%
[2]; [35]
  % CONTROL EC: 20%
[2]; [36]
  % CONTROL EC: 30%
[2]; [37]
  % CONTROL EC: 0%
[3]; [26]
  % CONTROL SM: 30%
[3]; [27]
  % CONTROL SM: 70%
[3]; [28]
  % CONTROL SM: 80%
[3]; [29]
  % CONTROL SM: 40%
[3]; [30]
  % CONTROL SM: 70%
[3]; [31]
  % CONTROL SM: 80%
[3]; [32]
  % CONTROL SM: 30%
[3]; [33]
  % CONTROL SM: 90%
[3]; [34]
  % CONTROL SM: 90%
[3]; [35]
  % CONTROL SM: 40%
[3]; [36]
  % CONTROL SM: 80%
[3]; [37]
  % CONTROL SM: 90%
[4]; [26]
  % CONTROL MV: 100%
[4]; [27]
  % CONTROL MV: 100%
[4]; [28]
  % CONTROL MV: 100%
[4]; [29]
  % CONTROL MV: 90%
[4]; [30]
  % CONTROL MV: 100%
[4]; [31]
  % CONTROL MV: 100%
[4]; [32]
  % CONTROL MV: 100%
[4]; [33]
  % CONTROL MV: 100%
[4]; [34]
  % CONTROL MV: 100%
[4]; [35]
  % CONTROL MV: 100%
[4]; [36]
  % CONTROL MV: 100%
[4]; [37]
  % CONTROL MV: 100%
[5]; 3 GAI/HA
  % CONTROL RICE: 10%
[5]; 4 GAI/HA
  % CONTROL RICE: 10%
[5]; 6 GAI/HA
  % CONTROL RICE: 10%
[5]; 8 GAI/HA
  % CONTROL RICE: 10%
[6]
  % CONTROL OR INJURY LL: 87%
[7]
  % CONTROL OR INJURY CD: 100%
[8]
  % CONTROL OR INJURY MC: 100%
[9]
  % CONTROL OR INJURY SZ: 100%
[10]
  % CONTROL OR INJURY RICE: 16.6%
[11]; applied 7 DAS, 3 GAI/HA
  PHYTOTOXICITY: 1.67
[11]; applied 7 DAS, 6 GAI/HA
  PHYTOTOXICITY: 1.33
[11]; applied 14 DAS, 3 GAI/HA
  PHYTOTOXICITY: 1.0
[11]; applied 14 DAS, 6 GAI/HA
  PHYTOTOXICITY: 1.0
[11]; applied 21 DAS, 3 GAI/HA
  PHYTOTOXICITY: 0
[11]; applied 21 DAS, 6 GAI/HA
  PHYTOTOXICITY: 0
[11]; applied 28 DAS, 3 GAI/HA
  PHYTOTOXICITY: 0
[11]; applied 28 DAS, 6 GAI/HA
  PHYTOTOXICITY: 0
[12]; 1 GAI/HA
  % CONTROL MC: 20%
[12]; 2 GAI/HA
  % CONTROL MC: 95%
[12]; 3 GAI/HA
  % CONTROL MC: 100%
[12]; 4 GAI/HA
  % CONTROL MC: 95%
[12]; 5 GAI/HA
  % CONTROL MC: 100%
[13]; 1 GAI/HA
  % CONTROL CD: 0%
[13]; 2 GAI/HA
  % CONTROL CD: 100%
[13]; 3 GAI/HA
  % CONTROL CD: 95%
[13]; 4 GAI/HA
  % CONTROL CD: 100%
[13]; 5 GAI/HA
  % CONTROL CD: 100%
[14]; 1 GAI/HA
  % CONTROL FM: 0%
[14]; 2 GAI/HA
  % CONTROL FM: 100%
[14]; 3 GAI/HA
  % CONTROL FM: 50%
[14]; 4 GAI/HA
  % CONTROL FM: 50%
[14]; 5 GAI/HA
  % CONTROL FM: 20%
[15]; 1 GAI/HA
  % CONTROL MV: 95%
[15]; 2 GAI/HA
  % CONTROL MV: 95%
[15]; 3 GAI/HA
  % CONTROL MV: 100%
[15]; 4 GAI/HA
  % CONTROL MV: 100%
[15]; 5 GAI/HA
  % CONTROL MV: 100%
[16]; 1 GAI/HA
  % CONTROL SZ: 0%
[16]; 2 GAI/HA
  % CONTROL SZ: 100%
[16]; 3 GAI/HA
  % CONTROL SZ: 100%
[16]; 4 GAI/HA
  % CONTROL SZ: 100%
[16]; 5 GAI/HA
  % CONTROL SZ: 100%
[17]; 1 GAI/HA
  % CONTROL SG: 80%
[17]; 2 GAI/HA
  % CONTROL SG: 100%
[17]; 3 GAI/HA
  % CONTROL SG: 95%
[17]; 4 GAI/HA
  % CONTROL SG: 95%
[17]; 5 GAI/HA
  % CONTROL SG: 100%
[18]; 3 G/HA
  % INJURY OR CONTROL SE: 68%
[18]; 6 G/HA
  % INJURY OR CONTROL SE: 62%
[18]; 12 G/HA
  % INJURY OR CONTROL SE: 46%
[19]; 3 G/HA
  % INJURY OR CONTROL EC: 26%
[19]; 6 G/HA
  % INJURY OR CONTROL EC: 30%
[19]; 12 G/HA
  % INJURY OR CONTROL EC: 24%
[20]; 3 G/HA
  % INJURY OR CONTROL CC: 11%
[20]; 6 G/HA
  % INJURY OR CONTROL CC: 19%
[20]; 12 G/HA
  % INJURY OR CONTROL CC: 18%
[21]; 3 G/HA
  % INJURY OR CONTROL AI: 68%
[21]; 6 G/HA
  % INJURY OR CONTROL AI: 62%
[21]; 12 G/HA
  % INJURY OR CONTROL AI: 46%
[22]; 3 G/HA
  % INJURY OR CONTROL SEDGE: 43%
[22]; 6 G/HA
  % INJURY OR CONTROL SEDGE: 56%
[22]; 12 G/HA
  % INJURY OR CONTROL SEDGE: 56%
[23]; 3 G/HA
  % INJURY OR CONTROL EA: 13%
[23]; 6 G/HA
  % INJURY OR CONTROL EA: 23%
[23]; 12 G/HA
  % INJURY OR CONTROL EA: 15%
[24]; 3 G/HA
  % INJURY OR CONTROL COM: 13%
[24]; 6 G/HA
  % INJURY OR CONTROL COM: 24%
[24]; 12 G/HA
  % INJURY OR CONTROL COM: 23%
[25]; 3 G/HA
  % INJURY OR CONTROL RICE: 3%
[25]; 6 G/HA
  % INJURY OR CONTROL RICE: 5%
[25]; 12 G/HA
  % INJURY OR CONTROL RICE: 6%
